Source: patent US4948782A, “A method of promoting the growth of domestic animals with erythromycin derivative containing composition” (Kitasato Kenkyusho, priority 1987, dated 1990)
Values after ≈ are worked out from the molar mass of the structure shown. Where two headings read alike, the source gives them in different places.

What was measured:
cockerels of broilers = test: Survival rate and growing rate of cockerels of broilers fed the compound in rye-rations for 14 days; format: in vivo, cockerels of broilers (Habbard); settings: for Gain (Ratio): control = 100.0; for Gain: mean
Description: The feeds prepared by adding 0, 1.0, 10.0 and 100.0 ppm of 8,9-anhydroerythromycin A 6,9-hemiketal propargyl chloride respectively to rye-rations, were given to 160 cockerels of broilers (Habbard) of day zero, as 10 cockerels/group×4 repeats/ section, and allowed to be taken freely and continuously for 14 days. The cockerels were positioned to be accommodated for each groups by the Latin square method in an electrically heated battery brooder (the inside thereof is heated at a temperature of 32° C.). The survival rate and the growing rate were measured at 7 and 14 days of age.
Experimental Example 2 was repeated except for changing the administration compound to ethyl-nor-8,9-anhydroerythromycin A 6,9-hemiketal. The result of measuring the survival rate and the growing rate in cockerals of broilers (Habbard) of day zero was shown in Table 8.

Clostridium perfringens = format: in vivo
[1] = system: Staphylococcus aureus ATCC 6538P; test: MIC, Staphylococcus aureus ATCC 6538P (SA(1)); format: cell-based; settings: Staphylococcus aureus, ATCC6538P, Staphylococcus aureus ATCC 6538P; read-out: MIC SA (1)
Excerpt: (§1) The minimum inhibitory concentrations (MIC: mcg/ml) of the erythromycin derivatives of the present invention and the control erythromycin derivative (*) as the known growth promoting agent on typical test bacteria are shown in the following Tables 1 to 5.
SA(1): Staphylococcus aureus ATCC 6538P

Bacillus subtilis = test: MIC, Bacillus subtilis (BS); format: cell-based; settings: read-out: MIC BS
[2] = system: Klebsiella pneumoniae ATCC 10031; test: MIC, Klebsiella pneumoniae ATCC 10031 (KP); format: cell-based; settings: ATCC10031; Klebsiella pneumoniae ATCC 10031; read-out: MIC KP
[3] = system: Staphylococcus aureus FDA 209P; test: MIC, Staphylococcus aureus FDA 209P (SA(2)); format: cell-based; settings: Staphylococcus aureus, FDA209P, Staphylococcus aureus FDA 209P; read-out: MIC SA (2)
Excerpt: as §1
SA(2): Staphylococcus aureus FDA 209P

Bacillus cereus IFO 3001 = test: MIC, Bacillus cereus IFO 3001 (BC); format: cell-based; settings: Bacillus cereus, IFO3001, Bacillus cereus IFO 3001; read-out: MIC BC
Escherichia coli NIHJ = test: MIC, Escherichia coli NIHJ (EC); format: cell-based

## CC[C@H]1OC(=O)[C@H](C)[C@@H](O[C@H]2C[C@@](C)(OC)[C@@H](O)[C@H](C)O2)[C@H](C)[C@@H](O[C@@H]2O[C@H](C)C[C@H](N(C)CC)[C@H]2O)[C@@]2(C)CC(C)=C(O2)[C@H](C)[C@@H](O)[C@]1(C)O [ethyl-nor-8,9-anhydroerythromycin A 6,9-hemiketal]
Cockerels of broilers; 1.0 ppm in feed, 0-7 days
  Survival rate: 97.5%
  Gain (Ratio): 103.1
  Gain: 85.7 g/cockerel
Cockerels of broilers; 1.0 ppm in feed, 0-14 days
  Survival rate: 97.5%
  Gain (Ratio): 106.8
  Gain: 263.3 g/cockerel
Cockerels of broilers; 10.0 ppm in feed, 0-7 days
  Survival rate: 97.5%
  Gain (Ratio): 98.3
  Gain: 81.7 g/cockerel
Cockerels of broilers; 10.0 ppm in feed, 0-14 days
  Survival rate: 95.0%
  Gain (Ratio): 102.6
  Gain: 253.1 g/cockerel
Cockerels of broilers; 100.0 ppm in feed, 0-7 days
  Survival rate: 100.0%
  Gain (Ratio): 104.3
  Gain: 86.7 g/cockerel
Cockerels of broilers; 100.0 ppm in feed, 0-14 days
  Survival rate: 100.0%
  Gain (Ratio): 105.4
  Gain: 259.8 g/cockerel
Clostridium perfringens; 1.0 ppm (section 2), day 0
  Number of Cl. perfringens: 7.03 log CFU/g
Clostridium perfringens; 1.0 ppm (section 2), day 7
  Number of Cl. perfringens: 7.20 log CFU/g
Clostridium perfringens; 10.0 ppm (section 3), day 0
  Number of Cl. perfringens: 6.83 log CFU/g
Clostridium perfringens; 10.0 ppm (section 3), day 7
  Number of Cl. perfringens: 7.54 log CFU/g
Clostridium perfringens; 100.0 ppm (section 4), day 0
  Number of Cl. perfringens: 6.59 log CFU/g
Clostridium perfringens; 100.0 ppm (section 4), day 7
  Number of Cl. perfringens: 7.17 log CFU/g

## CCCC[N+](C)(C)C1CC(C)OC(OC2C(C)C(OC3CC(C)(OC)C(O)C(C)O3)C(C)C(=O)OC(CC)C(C)(O)C(O)C(C)C3=C(C)CC2(C)O3)C1O (stereo not drawn) [Compound 49]
[1]
  MIC: 100 µg/mL
Bacillus subtilis
  MIC: > 100 µg/mL
[2]
  MIC: > 100 µg/mL
[3]
  MIC: 100 µg/mL
Bacillus cereus IFO 3001
  MIC: > 100 µg/mL
Escherichia coli NIHJ
  MIC: > 100 µg/mL

## CC[C@H]1OC(=O)[C@H](C)[C@@H](O[C@H]2C[C@@](C)(OC)[C@@H](O)[C@H](C)O2)[C@H](C)[C@@H](O[C@@H]2O[C@H](C)C[C@H](N(C)C)[C@H]2O)[C@@]2(C)CC(C)C(O2)[C@H](C)[C@@H](O)[C@]1(C)O (stereo partly drawn) [*1, reference compound]
[1]
  MIC: 12.5 µg/mL (≈ 17.4 µM)
Bacillus subtilis
  MIC: 6.25 µg/mL (≈ 8.71 µM)
[2]
  MIC: > 100 µg/mL
[3]
  MIC: 12.5 µg/mL (≈ 17.4 µM)
Bacillus cereus IFO 3001
  MIC: 12.5 µg/mL (≈ 17.4 µM)
Escherichia coli NIHJ
  MIC: > 100 µg/mL

## CCNC1CC(C)OC(OC2C(C)C(OC3CC(C)(OC)C(O)C(C)O3)C(C)C(=O)OC(CC)C(C)(O)C(O)C(C)C3=C(C)CC2(C)O3)C1O (stereo not drawn) [Compound 21]
[1]
  MIC: > 100 µg/mL
Bacillus subtilis
  MIC: > 100 µg/mL
[2]
  MIC: > 100 µg/mL
[3]
  MIC: > 100 µg/mL
Bacillus cereus IFO 3001
  MIC: > 100 µg/mL
Escherichia coli NIHJ
  MIC: > 100 µg/mL

## CCC1OC(=O)C(C)C(OC2CC(C)(OC)C(O)C(C)O2)C(C)C(OC2OC(C)CC([N+](C)(C)C)C2O)C2(C)CC(C)=C(O2)C(C)C(OC(C)=O)C1(C)OC(C)=O (stereo not drawn) [Compound 2]
[1]
  MIC: 100 µg/mL
Bacillus subtilis
  MIC: 100 µg/mL
[2]
  MIC: > 100 µg/mL
[3]
  MIC: 100 µg/mL
Bacillus cereus IFO 3001
  MIC: 100 µg/mL
Escherichia coli NIHJ
  MIC: > 100 µg/mL

## C#CC[N+](C)(CC#C)C1CC(C)OC(OC2C(C)C(OC3CC(C)(OC)C(O)C(C)O3)C(C)C(=O)OC(CC)C(C)(O)C(O)C(C)C3=C(C)CC2(C)O3)C1O (stereo not drawn) [Compound 45]
[1]
  MIC: 100 µg/mL
Bacillus subtilis
  MIC: > 100 µg/mL
[2]
  MIC: > 100 µg/mL
[3]
  MIC: 100 µg/mL
Bacillus cereus IFO 3001
  MIC: > 100 µg/mL
Escherichia coli NIHJ
  MIC: > 100 µg/mL

## CCC1OC(=O)C(C)C(OC2CC(C)(OC)C(O)C(C)O2)C(C)C(OC2OC(C)CC([N+]3(C)CCCC3)C2O)C2(C)CC(C)=C(O2)C(C)C(O)C1(C)O (stereo not drawn) [Compound 14]
[1]
  MIC: > 100 µg/mL
Bacillus subtilis
  MIC: > 100 µg/mL
[2]
  MIC: > 100 µg/mL
[3]
  MIC: > 100 µg/mL
Bacillus cereus IFO 3001
  MIC: > 100 µg/mL
Escherichia coli NIHJ
  MIC: > 100 µg/mL

## CCC1OC(=O)C(C)C(OC2CC(C)(OC)C(O)C(C)O2)C(C)C(OC2OC(C)CC([N+](C)(C)CCF)C2O)C2(C)CC(C)=C(O2)C(C)C(O)C1(C)O (stereo not drawn) [Compound 32]
[1]
  MIC: > 100 µg/mL
Bacillus subtilis
  MIC: > 100 µg/mL
[2]
  MIC: > 100 µg/mL
[3]
  MIC: > 100 µg/mL
Bacillus cereus IFO 3001
  MIC: > 100 µg/mL
Escherichia coli NIHJ
  MIC: > 100 µg/mL

## CCC1OC(=O)C(C)C(OC2CC(C)(OC)C(O)C(C)O2)C(C)C(OC2OC(C)CC(N)C2O)C2(C)CC(C)=C(O2)C(C)C(O)C1(C)O (stereo not drawn) [Compound 9]
[1]
  MIC: > 100 µg/mL
Bacillus subtilis
  MIC: > 100 µg/mL
[2]
  MIC: > 100 µg/mL
[3]
  MIC: > 100 µg/mL
Bacillus cereus IFO 3001
  MIC: > 100 µg/mL
Escherichia coli NIHJ
  MIC: > 100 µg/mL
